ChEMBL document CHEMBL4118156, “Design, synthesis and evaluation of vilazodone-tacrine hybrids as multitarget-directed ligands against depression with cognitive impairment” (Bioorg Med Chem, 2018)

Tests used:
in vitro [1] = conditions: PAMPA
Description: Effective permeability of the compound in PBS/ethanol buffer after 12 hrs by PAMPA

[2] = molecular target: T1, 5-hydroxytryptamine receptor 1A (Homo sapiens, UniProt P08908)
T1 sequence (P08908 whole entry): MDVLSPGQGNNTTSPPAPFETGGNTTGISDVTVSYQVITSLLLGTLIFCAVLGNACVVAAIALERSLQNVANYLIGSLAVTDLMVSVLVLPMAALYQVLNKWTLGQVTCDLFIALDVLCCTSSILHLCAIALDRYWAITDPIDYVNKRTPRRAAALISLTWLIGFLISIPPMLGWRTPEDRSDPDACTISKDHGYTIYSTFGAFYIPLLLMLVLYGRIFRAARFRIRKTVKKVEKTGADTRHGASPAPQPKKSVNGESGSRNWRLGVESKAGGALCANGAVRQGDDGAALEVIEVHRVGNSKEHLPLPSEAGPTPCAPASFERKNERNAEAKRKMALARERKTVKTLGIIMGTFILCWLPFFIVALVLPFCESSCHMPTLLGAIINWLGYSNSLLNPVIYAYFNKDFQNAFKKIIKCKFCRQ
Description: Agonist activity at human 5-HT1A receptor expressed in HEK293 cells after 60 mins by Eu-cAMP solution based ultra LANCE assay

Butyrylcholinesterase [3] = molecular target: T2, Butyrylcholinesterase (Rattus norvegicus, UniProt Q9JKC1)
Description: (§1) Inhibition of rat serum BChE using butyrylthiocholine iodide as substrate after 20 mins by Ellman's method

Acetylcholinesterase = molecular target: T3, Acetylcholinesterase (Rattus norvegicus, UniProt P37136); experiment: Inhibition of rat cortex AChE using acetylthiocholine iodide as substrate after 20 mins by Ellman's method
T3 sequence (P37136 whole entry): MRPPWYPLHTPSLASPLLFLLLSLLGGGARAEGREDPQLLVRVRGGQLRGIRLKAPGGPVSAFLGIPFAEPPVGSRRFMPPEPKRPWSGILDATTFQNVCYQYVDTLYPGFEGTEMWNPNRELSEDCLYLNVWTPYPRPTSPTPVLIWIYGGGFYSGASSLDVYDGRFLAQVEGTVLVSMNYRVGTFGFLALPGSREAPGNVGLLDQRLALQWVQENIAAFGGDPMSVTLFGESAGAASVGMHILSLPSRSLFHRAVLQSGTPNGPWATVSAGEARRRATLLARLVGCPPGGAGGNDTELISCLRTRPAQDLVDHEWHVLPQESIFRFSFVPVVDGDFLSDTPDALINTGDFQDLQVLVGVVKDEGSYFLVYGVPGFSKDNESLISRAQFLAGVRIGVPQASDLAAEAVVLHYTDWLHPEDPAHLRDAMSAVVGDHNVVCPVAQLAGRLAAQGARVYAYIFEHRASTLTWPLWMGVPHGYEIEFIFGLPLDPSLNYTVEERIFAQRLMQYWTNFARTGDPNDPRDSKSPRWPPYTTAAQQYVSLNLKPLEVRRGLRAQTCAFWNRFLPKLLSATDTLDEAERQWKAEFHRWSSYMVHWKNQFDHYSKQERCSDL

[4] = molecular target: Sodium-dependent serotonin transporter (Homo sapiens, UniProt P31645); type: cell-based, HEK293
Description: Inhibition of SERT (unknown origin) expressed in HEK293 cells assessed as reduction in 5-HT uptake incubated for 30 mins

in vitro [5] = conditions: not told
Description: Effective permeability of the compound in PBS/ethanol buffer

Butyrylcholinesterase [6] = molecular target: T2, Butyrylcholinesterase; remark: listed apart in the source
Description: as §1

Chain of Sodium-dependent serotonin transporter (P31645 whole entry): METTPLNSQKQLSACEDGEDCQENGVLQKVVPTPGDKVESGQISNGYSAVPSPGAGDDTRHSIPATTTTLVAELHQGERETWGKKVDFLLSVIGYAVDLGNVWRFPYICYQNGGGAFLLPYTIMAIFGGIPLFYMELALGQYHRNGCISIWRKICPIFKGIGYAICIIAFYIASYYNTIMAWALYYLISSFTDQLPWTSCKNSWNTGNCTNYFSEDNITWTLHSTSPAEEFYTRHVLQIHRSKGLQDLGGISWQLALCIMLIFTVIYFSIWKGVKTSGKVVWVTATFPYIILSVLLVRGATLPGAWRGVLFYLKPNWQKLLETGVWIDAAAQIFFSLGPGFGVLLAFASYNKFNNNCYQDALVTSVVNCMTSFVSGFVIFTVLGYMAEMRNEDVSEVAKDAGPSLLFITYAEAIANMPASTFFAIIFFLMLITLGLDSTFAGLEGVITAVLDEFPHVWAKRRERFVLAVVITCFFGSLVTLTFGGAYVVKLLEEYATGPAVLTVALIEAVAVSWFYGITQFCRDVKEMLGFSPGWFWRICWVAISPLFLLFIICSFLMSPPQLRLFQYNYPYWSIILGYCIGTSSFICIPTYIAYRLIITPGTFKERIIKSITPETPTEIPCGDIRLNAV
T2 sequence (Q9JKC1 whole entry): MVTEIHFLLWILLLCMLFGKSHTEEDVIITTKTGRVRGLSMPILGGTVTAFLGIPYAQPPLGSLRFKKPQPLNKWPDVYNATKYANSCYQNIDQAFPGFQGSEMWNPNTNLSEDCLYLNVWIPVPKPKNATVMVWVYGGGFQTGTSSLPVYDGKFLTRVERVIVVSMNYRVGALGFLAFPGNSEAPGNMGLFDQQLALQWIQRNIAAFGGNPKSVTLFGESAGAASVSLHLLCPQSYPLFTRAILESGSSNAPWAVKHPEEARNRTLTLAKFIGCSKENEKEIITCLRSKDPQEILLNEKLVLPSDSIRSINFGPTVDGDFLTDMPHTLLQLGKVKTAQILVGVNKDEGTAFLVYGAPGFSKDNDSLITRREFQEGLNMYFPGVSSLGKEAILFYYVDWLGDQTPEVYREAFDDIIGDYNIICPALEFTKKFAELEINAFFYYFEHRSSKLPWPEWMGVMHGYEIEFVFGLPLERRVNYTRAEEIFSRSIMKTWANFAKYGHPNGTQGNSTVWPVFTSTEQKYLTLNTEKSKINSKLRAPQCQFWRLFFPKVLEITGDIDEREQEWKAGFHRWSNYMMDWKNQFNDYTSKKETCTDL

N#Cc1ccc2[nH]cc(CCCN3CCN(c4cccc5nc6c(c(N)c45)CCCC6)CC3)c2c1
Papp at 12 h (in vitro [1]): 5.46 ×10⁻⁶ cm/s
EC50 [2]: 52 nM
IC50 (Butyrylcholinesterase [3]): 420 nM
IC50 (Acetylcholinesterase; read-out: IC50): 1820 nM

N#Cc1ccc2[nH]cc(CCCCN3CCN(c4cccc5c(N)c6c(nc45)CCCC6)CC3)c2c1
Papp at 12 h (in vitro [1]): 4.43 ×10⁻⁶ cm/s
EC50 [2]: 1.55 nM
IC50 (Butyrylcholinesterase [3]): 310 nM
IC50 (Acetylcholinesterase; read-out: IC50): 2330 nM

N#Cc1ccc2[nH]cc(C(=O)CCCN3CCN(c4cccc5c(N)c6c(nc45)CCCC6)CC3)c2c1
Papp at 12 h (in vitro [1]): 1.61 ×10⁻⁶ cm/s
EC50 [2]: 35 nM
IC50 (Butyrylcholinesterase [3]): 1850 nM
IC50 (Acetylcholinesterase; read-out: IC50): 3310 nM

N#Cc1ccc2[nH]cc(CCCCN3CCN(c4cccc5nc6c(c(N)c45)CCCC6)CC3)c2c1
Papp at 12 h (in vitro [1]): 5.11 ×10⁻⁶ cm/s
IC50 [4]: 20.4 nM
EC50 [2]: 0.36 nM
IC50 (Butyrylcholinesterase [3]): 340 nM
IC50 (Acetylcholinesterase; read-out: IC50): 1720 nM

Nc1c2c(nc3cccc(N4CCN(CCCCc5c[nH]c6ccccc56)CC4)c13)CCCC2
Papp at 12 h (in vitro [1]): 3.52 ×10⁻⁶ cm/s
EC50 [2]: 1.2 nM
IC50 (Butyrylcholinesterase [3]): 390 nM
IC50 (Acetylcholinesterase; read-out: IC50): 1440 nM

N#Cc1ccc2[nH]cc(CCN3CCN(c4cccc5nc6c(c(N)c45)CCCC6)CC3)c2c1
Papp at 12 h (in vitro [1]): 4.48 ×10⁻⁶ cm/s
EC50 [2]: > 10000 nM
IC50 (Butyrylcholinesterase [3]): 1130 nM
IC50 (Acetylcholinesterase; read-out: IC50): 2100 nM

COc1ccc2[nH]cc(CCCCN3CCN(c4cccc5nc6c(c(N)c45)CCCC6)CC3)c2c1
Papp at 12 h (in vitro [1]): 4.53 ×10⁻⁶ cm/s
IC50 [4]: 229 nM
EC50 [2]: < 0.14 nM
IC50 (Butyrylcholinesterase [3]): 400 nM
IC50 (Acetylcholinesterase; read-out: IC50): 1620 nM

CC1COc2c(N3CCN(C)CC3)c(F)cc3c2N1CC(C(=O)O)C3=O (stereo not drawn)
Papp at 12 h (in vitro [1]): 0.4 ×10⁻⁶ cm/s
Papp (in vitro [5]): 0.8 ×10⁻⁶ cm/s

N#Cc1ccc2[nH]cc(C(=O)CCCN3CCN(c4ccc5nc6c(c(N)c5c4)CCCC6)CC3)c2c1
Papp at 12 h (in vitro [1]): 1.04 ×10⁻⁶ cm/s
EC50 [2]: 1560 nM
IC50 (Butyrylcholinesterase [3]): 250 nM
IC50 (Acetylcholinesterase; read-out: IC50): 2910 nM

Nc1c2c(nc3cccc(N4CCN(CCCCc5c[nH]c6ccc(Cl)cc56)CC4)c13)CCCC2
Papp at 12 h (in vitro [1]): 2.74 ×10⁻⁶ cm/s
IC50 (Butyrylcholinesterase [6]): Nd(Insoluble)
EC50 [2]: 0.75 nM
IC50 (Acetylcholinesterase): Nd(Insoluble)

N#Cc1ccc2[nH]cc(C(=O)CCCN3CCN(c4ccc5c(N)c6c(nc5c4)CCCC6)CC3)c2c1
Papp at 12 h (in vitro [1]): 1.68 ×10⁻⁶ cm/s
EC50 [2]: 567 nM
IC50 (Butyrylcholinesterase [3]): 370 nM
IC50 (Acetylcholinesterase; read-out: IC50): 1980 nM

Nc1c2c(nc3cccc(N4CCN(CCCCc5c[nH]c6ccc(Br)cc56)CC4)c13)CCCC2
Papp at 12 h (in vitro [1]): 3.05 ×10⁻⁶ cm/s
IC50 (Butyrylcholinesterase [6]): Nd(Insoluble)
EC50 [2]: 0.35 nM
IC50 (Acetylcholinesterase): Nd(Insoluble)

N#Cc1ccc2[nH]cc(CCCCN3CCN(c4cccc5nc6c(c(N)c45)CCC6)CC3)c2c1
Papp at 12 h (in vitro [1]): 4.38 ×10⁻⁶ cm/s
IC50 [4]: 22.1 nM
EC50 [2]: 0.58 nM
IC50 (Butyrylcholinesterase [3]): 100 nM
IC50 (Acetylcholinesterase; read-out: IC50): 2360 nM

N#Cc1ccc2[nH]cc(C(=O)CCCN3CCN(c4cccc5nc6c(c(N)c45)CCCC6)CC3)c2c1
Papp at 12 h (in vitro [1]): 1.33 ×10⁻⁶ cm/s
EC50 [2]: 62.4 nM
IC50 (Butyrylcholinesterase [3]): 390 nM
IC50 (Acetylcholinesterase; read-out: IC50): 1360 nM

COC(=O)c1ccc2[nH]cc(CCCCN3CCN(c4cccc5nc6c(c(N)c45)CCCC6)CC3)c2c1
Papp at 12 h (in vitro [1]): 6.22 ×10⁻⁶ cm/s
IC50 [4]: 314 nM
EC50 [2]: < 0.14 nM
IC50 (Butyrylcholinesterase [3]): 410 nM
IC50 (Acetylcholinesterase; read-out: IC50): 2220 nM

N#Cc1ccc2[nH]cc(CCCCN3CCN(c4ccc5c(N)c6c(nc5c4)CCCC6)CC3)c2c1
Papp at 12 h (in vitro [1]): 2.99 ×10⁻⁶ cm/s
EC50 [2]: 28.8 nM
IC50 (Butyrylcholinesterase [3]): 250 nM
IC50 (Acetylcholinesterase; read-out: IC50): 5100 nM

Nc1c2c(nc3cccc(N4CCN(CCCCc5c[nH]c6ccc(F)cc56)CC4)c13)CCCC2
Papp at 12 h (in vitro [1]): 3.76 ×10⁻⁶ cm/s
IC50 (Butyrylcholinesterase [6]): Nd(Insoluble)
EC50 [2]: 0.72 nM
IC50 (Acetylcholinesterase): Nd(Insoluble)

N#Cc1ccc2[nH]cc(CCCCN3CCN(c4ccc5nc6c(c(N)c5c4)CCCC6)CC3)c2c1
Papp at 12 h (in vitro [1]): 3.55 ×10⁻⁶ cm/s
EC50 [2]: 14.9 nM
IC50 (Butyrylcholinesterase [3]): 640 nM
IC50 (Acetylcholinesterase; read-out: IC50): 10200 nM

N#Cc1ccc2[nH]cc(CCCCN3CCN(c4cccc5nc6c(c(N)c45)CCCCC6)CC3)c2c1
Papp at 12 h (in vitro [1]): 3.97 ×10⁻⁶ cm/s
EC50 [2]: 146 nM
IC50 (Butyrylcholinesterase [3]): 230 nM
IC50 (Acetylcholinesterase; read-out: IC50): 18300 nM

CC(=O)Nc1c2c(nc3cccc(N4CCN(CCCCc5c[nH]c6ccc(C#N)cc56)CC4)c13)CCCC2
Papp at 12 h (in vitro [1]): 1.92 ×10⁻⁶ cm/s
EC50 [2]: 93.4 nM
IC50 (Butyrylcholinesterase [3]): 2920 nM
IC50 (Acetylcholinesterase; read-out: IC50): 5610 nM

Cc1ccc2[nH]cc(CCCCN3CCN(c4cccc5nc6c(c(N)c45)CCCC6)CC3)c2c1
Papp at 12 h (in vitro [1]): 3.64 ×10⁻⁶ cm/s
EC50 [2]: 0.6 nM
IC50 (Butyrylcholinesterase [3]): 360 nM
IC50 (Acetylcholinesterase; read-out: IC50): 1120 nM

COc1ccc(CCN2CCC(Nc3nc4ccccc4n3Cc3ccc(F)cc3)CC2)cc1 [ASTEMIZOLE]
Papp (in vitro [5]): 11 ×10⁻⁶ cm/s

N#Cc1ccc2[nH]cc(CCCCN3CCN(c4ccc5oc(C(N)=O)cc5c4)CC3)c2c1 [VILAZODONE]
IC50 (Acetylcholinesterase; read-out: IC50): 21300 nM
